1 compound from paper PMC6300691, “Enhancement of Heat Stability and Kinetic Parameters of the Maize Endosperm ADP-Glucose Pyrophosphorylase by Mutagenesis of Amino Acids in the Small Subunit With High B Factors” (Frontiers in Plant Science, 2018) can be followed below.

Common to all, as to assay: Initial-rate assay (PPi formation coupled to NADH oxidation) with varied ATP (0.05-3.0 mM) at 2.0 mM G-1-P, 2.5 mM 3-PGA, 15 mM MgCl2, 50 mM HEPES pH 7.4, hyperbolic fit.
Type in all cases: biochemical
Conditions in all cases: read-out: KM ATP

Test [1] has as its target T1, E123G, R331K, K402R (BT2-BF) (Zea mays, UniProt P55241+Q947C0, E123G/R331K/K402R).
T1 construct: BT2-BF with wild type SH2 (SH2-WT/BT2-BF), E. coli, purified
T1 sequence (Q947C0 1-475 E123G/R331K/K402R): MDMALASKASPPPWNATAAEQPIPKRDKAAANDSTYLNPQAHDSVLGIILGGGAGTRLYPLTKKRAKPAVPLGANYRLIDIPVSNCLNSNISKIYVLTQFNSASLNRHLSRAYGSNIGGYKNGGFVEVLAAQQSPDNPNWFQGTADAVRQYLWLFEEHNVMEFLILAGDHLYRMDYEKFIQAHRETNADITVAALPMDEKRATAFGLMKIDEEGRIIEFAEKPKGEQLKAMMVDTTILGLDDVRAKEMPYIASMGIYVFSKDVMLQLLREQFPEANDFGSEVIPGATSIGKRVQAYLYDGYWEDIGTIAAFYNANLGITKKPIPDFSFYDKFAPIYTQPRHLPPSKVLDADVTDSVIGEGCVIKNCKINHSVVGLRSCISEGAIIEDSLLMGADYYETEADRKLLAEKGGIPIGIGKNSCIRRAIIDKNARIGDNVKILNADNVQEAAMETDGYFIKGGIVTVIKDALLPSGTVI
T1 sequence (P55241 46-516): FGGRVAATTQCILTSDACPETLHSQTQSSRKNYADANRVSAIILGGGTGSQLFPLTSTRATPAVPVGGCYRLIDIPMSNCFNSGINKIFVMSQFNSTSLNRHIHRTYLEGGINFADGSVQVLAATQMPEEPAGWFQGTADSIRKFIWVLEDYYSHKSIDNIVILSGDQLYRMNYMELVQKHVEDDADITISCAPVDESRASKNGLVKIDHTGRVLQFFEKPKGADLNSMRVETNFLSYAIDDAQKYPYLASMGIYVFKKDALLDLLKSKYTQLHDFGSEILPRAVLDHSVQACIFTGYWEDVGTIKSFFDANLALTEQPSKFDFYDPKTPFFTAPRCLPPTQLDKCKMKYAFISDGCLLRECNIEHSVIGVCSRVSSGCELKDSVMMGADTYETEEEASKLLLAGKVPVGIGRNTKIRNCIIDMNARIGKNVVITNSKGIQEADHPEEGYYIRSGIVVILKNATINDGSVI
From the text:
(§1) All saturation plots were hyperbolic. No cooperative effects were seen.

For test [2], the target named is T2, E123G, R331K, K402R, L404H (Zea mays, UniProt P55241+Q947C0, E123G/R331K/K402R/L404H).
T2 construct: BT2 quadruple variant with wild type SH2, E. coli, purified
T2 sequence (Q947C0 1-475 E123G/R331K/K402R/L404H, one chain of several): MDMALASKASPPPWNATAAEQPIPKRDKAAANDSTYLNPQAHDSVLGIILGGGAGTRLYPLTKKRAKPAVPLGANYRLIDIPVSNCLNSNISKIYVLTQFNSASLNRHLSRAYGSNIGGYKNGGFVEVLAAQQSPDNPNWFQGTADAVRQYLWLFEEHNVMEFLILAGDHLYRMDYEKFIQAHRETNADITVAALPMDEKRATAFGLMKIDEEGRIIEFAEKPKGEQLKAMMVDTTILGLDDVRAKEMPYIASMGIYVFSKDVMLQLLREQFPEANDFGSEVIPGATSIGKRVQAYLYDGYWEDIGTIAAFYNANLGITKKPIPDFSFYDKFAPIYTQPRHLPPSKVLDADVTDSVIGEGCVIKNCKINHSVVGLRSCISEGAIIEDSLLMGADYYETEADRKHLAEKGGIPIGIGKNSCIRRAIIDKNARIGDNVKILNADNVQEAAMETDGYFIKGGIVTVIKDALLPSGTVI
Excerpt: as §1

For test [3], the target named is T3, E123G, R331K, L404H (Zea mays, UniProt P55241+Q947C0, E123G/R331K/L404H).
T3 construct: BT2 variant with wild type SH2, E. coli, purified
T3 sequence (Q947C0 1-475 E123G/R331K/L404H, one chain of several): as the sequence (Q947C0 1-475 E123G/R331K/K402R/L404H, one chain of several) above, with R402K counted along it
Excerpt: as §1

Test [4] has as its target T4, K403E (Zea mays, UniProt P55241+Q947C0, K403E).
T4 construct: BT2 variant with wild type SH2, E. coli, purified
Excerpt: as §1

The target of test [5] is T5, L404K (Zea mays, UniProt P55241+Q947C0, L404K).
T5 construct: BT2 variant with wild type SH2, E. coli, purified
T5 sequence (Q947C0 1-475 L404K, one chain of several): as the sequence (Q947C0 1-475 E123G/R331K/K402R/L404H, one chain of several) above, with G123E, K331R, R402K, H404K counted along it
Excerpt: as §1

The target of test [6] is T6, R331P (Zea mays, UniProt P55241+Q947C0, R331P).
T6 construct: BT2 variant with wild type SH2, E. coli, purified
T6 sequence (Q947C0 1-475 R331P, one chain of several): as the sequence (Q947C0 1-475 E123G/R331K/K402R/L404H, one chain of several) above, with G123E, K331P, R402K, H404L counted along it
Excerpt: as §1

T4 sequence (Q947C0 1-475 K403E, one chain of several): as the sequence (Q947C0 1-475 E123G/R331K/K402R/L404H, one chain of several) above, with G123E, K331R, R402K, K403E, H404L counted along it

As to `Nc1ncnc2c1ncn2[C@@H]1O[C@H](COP(=O)(O)OP(=O)(O)OP(=O)(O)O)[C@@H](O)[C@H]1O` [ATP, adenosine 5'-triphosphate], the Michaelis constant (Km) in test [1] came to 60 ± 7 µM; in test [2], 91 ± 8 µM; in test [3], 67 ± 10 µM; in test [4] it was 69 ± 12 µM; in test [5], 43 ± 9 µM; in test [6], 97 ± 15 µM.
